Laboratory results from US20160220801A1, “TREATING LICE WITH GASEOUS COMPOUNDS IN AN AIRTIGHT SPACE” (NOVOMIC LTD., priority 2007, published 2016).

Test system: lice
Conditions: active agent delivered as gas/vapour in an airtight cap around the head; comparison among carboxylic acids

Structure (SMILES)	effectiveness of carboxylic acids for use in treating lice and nits
CC(=O)O [acetic acid, Acetic acid]	most effective
O=CO [formic acid, Formic acid]	most effective
